# Laboratory results taken from patent US11285227B2, “Trifunctional constructs with tunablepharmacokinetics useful in imaging and anti-tumor therapies” (CORNELL UNIVERSITY, priority 2017, dated 2022).
# Key:
# PSMA on LNCaP cells [1] = molecular target: T1, PSMA on LNCaP cells (Homo sapiens, UniProt Q04609); test: cell-based
# Method: The PSMA expressing human prostate cancer cell line, LNCaP, was obtained from the American Type Culture Collection. […] LNCaP cells were maintained in RPMI-1640 medium supplemented with 10% fetal bovine serum (Hyclone), 4 mM L-glutamine, 1 mM sodium pyruvate, 10 mM N-2-hydroxyethylpiperazine-N-2-ethanesulfonic acid (HEPES), 2.5 mg/mL D-glucose, and 50 μg/mL gentamicin in a humidified incubator at 37° C./5% CO2. Cells were removed from flasks for passage or for transfer to 12-well assay plates by incubating them with 0.25% trypsin/ethylenediaminetetraacetic acid (EDTA).
# Briefly, LNCaP cells were plated 72 h prior to the experiment to achieve a density of approximately 5×10^5 cells/well (in triplicate) in RPMI-1640 medium supplemented with 0.25% bovine serum albumin. The cells were incubated for 2 h with 1 nM ^99mTc-MIP-1427 in RPMI-1640 medium containing 0.00125% w/v bovine serum albumin [3] in the presence of 0.001-10,000 nM test compounds. Radioactive incubation media was then removed by pipette and the cells were washed twice using 1 mL ice-cold PBS 1× solution. Cells were harvested from the plates following treatment with 1 mL 1M NaOH and transferred to tubes for radioactive counting using a 2470 Wizard^2 Automatic Gamma Counter (Perkin Elmer). […] IC50 values were determined by fitting the data points to a sigmoidal Hills1 curve in Origin software.
# PSMA on LNCaP cells [2] = molecular target: T1, PSMA on LNCaP cells; parameters: host or cells: LNCaP; conditions: binding to PSMA on LNCaP cells; cited from earlier work
# [3] = system: LNCaP xenograft tumor-bearing mice; test: Biodistribution of 225Ac-macropa-RPS-070 in LNCaP xenograft mice; type: in vivo; conditions: 4-96 h; no accumulation in liver, spleen, bone
# Method: Cell Culture. […] Cell culture supplies were from Invitrogen unless otherwise noted.
# Inoculation of Mice with Xenografts. All animal studies were approved by the Institutional Animal Care and Use Committee of Weill Cornell Medicine and were undertaken in accordance with the guidelines set forth by the USPHS Policy on Humane Care and Use of Laboratory Animals. Animals were housed under standard conditions in approved facilities with 12 h light/dark cycles. Food and water was provided ad libitum throughout the course of the studies. Hairless male nu/nu mice were purchased from the Jackson Laboratory. For inoculation in mice, LNCaP cells were suspended at 4×10^7 cells/mL in a 1:1 mixture of PBS:Matrigel (BD Biosciences). Each mouse was injected in the left flank with 0.25 mL of the cell suspension. Biodistributions were conducted when tumors were in the range 100-400 mm^3.
# Biodistribution of ^225Ac-macropa-RPS-070 in LNCaP xenograft mice. […] Tissues were weighed and counted on a 2470 Wizard Automatic Gamma Counter (Perkin Elmer). 1% ID/mL samples were counted prior to and following each set of tissue samples to enable decay correction to be undertaken. Counts were corrected for decay and for activity injected, and tissue uptake was expressed as percent injected dose per gram (% ID/g). Standard error measurement was calculated for each data point.
# T1 sequence (Q04609 whole entry): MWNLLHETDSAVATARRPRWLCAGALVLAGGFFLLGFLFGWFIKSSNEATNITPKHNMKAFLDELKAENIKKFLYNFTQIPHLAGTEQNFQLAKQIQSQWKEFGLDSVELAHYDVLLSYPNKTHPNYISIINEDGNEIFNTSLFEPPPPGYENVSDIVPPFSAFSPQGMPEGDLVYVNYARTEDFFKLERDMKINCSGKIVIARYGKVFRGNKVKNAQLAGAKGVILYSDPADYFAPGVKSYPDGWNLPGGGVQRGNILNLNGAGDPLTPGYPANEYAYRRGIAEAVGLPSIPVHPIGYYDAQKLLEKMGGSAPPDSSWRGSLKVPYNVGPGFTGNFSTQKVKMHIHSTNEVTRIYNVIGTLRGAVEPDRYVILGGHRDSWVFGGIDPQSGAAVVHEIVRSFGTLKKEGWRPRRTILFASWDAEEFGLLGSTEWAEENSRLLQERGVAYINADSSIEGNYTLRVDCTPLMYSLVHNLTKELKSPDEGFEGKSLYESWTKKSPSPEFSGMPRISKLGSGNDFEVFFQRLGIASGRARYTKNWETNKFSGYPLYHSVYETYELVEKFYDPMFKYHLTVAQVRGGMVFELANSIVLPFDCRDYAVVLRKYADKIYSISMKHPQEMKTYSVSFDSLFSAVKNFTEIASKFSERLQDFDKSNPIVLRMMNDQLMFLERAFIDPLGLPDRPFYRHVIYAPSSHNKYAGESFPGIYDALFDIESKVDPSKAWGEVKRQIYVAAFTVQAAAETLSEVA
compound,measurement,setting,value
"O=C(O)CC[C@H](NC(=O)N[C@@H](CCCCNC(=O)Nc1cccc(-c2cn(CCOCCOCCOCCC(=O)N[C@@H](CCCCNC(=S)Nc3cc(CN4CCOCCOCCN(Cc5cccc(C(=O)O)n5)CCOCCOCC4)nc(C(=O)O)c3)C(=O)NCCOCCOCCOCCOCCOCCOCCOCCOCCC(=O)N[C@@H](CCCCNC(=O)CCCc3ccc(I)cc3)C(=O)O)nn2)c1)C(=O)O)C(=O)O [RPS-074, (((S)-1-Carboxy-5-(3-(3-(1-((14S,45S)-45-carboxy-14-(4-(3-(2-carboxy-6-((16-((6-carboxypyridin-2-yl)methyl)-1,4,10,13-tetraoxa-7,16-diazacyclooctadecan-7-yl)methyl)pyridin-4-yl)thioureido)butyl)-54-(4-iodophenyl)-12,15,43,51-tetraoxo-3,6,9,19,22,25,28,31,34,37,40-undecaoxa-13,16,44,50-tetraazatetrapentacontyl)-1H-1,2,3-triazol-4-yl)phenyl)ureido)pentyl)carbamoyl)-L-glutamic acid]",IC50,PSMA on LNCaP cells [1],12 ± 3.4 nM
"^99mTc-((7S,12S,16S)-1-(1-(carboxymethyl)-1H-imidazol-2-yl)-2-((1-(carboxymethyl)-1H-imidazol-2-yl)methyl)-9,14-dioxo-2,8,13,15-tetraazaoctadecane-7,12,16,18-tetracarboxylic acid technetium tricarbonyl complex) [^99mTc-MIP-1427]",Kd,PSMA on LNCaP cells [2],0.64 ± 0.46 nM
"O=C(O)CC[C@H](NC(=O)N[C@@H](CCCCNC(=O)Nc1cccc(-c2cn(CCOCCOCCOCCOCCOCCOCCC(=O)N[C@@H](CCCCNC(=S)Nc3cc(CN4CCOCCOCCN(Cc5cccc(C(=O)O)n5)CCOCCOCC4)nc(C(=O)O)c3)C(=O)N[C@@H](CCCCNC(=O)Cc3ccc(I)cc3)C(=O)O)nn2)c1)C(=O)O)C(=O)O [macropa-RPS-070, (((S)-1-Carboxy-5-(3-(3-(1-((23S,26S)-26-carboxy-23-(4-(3-(2-carboxy-6-((16-((6-carboxypyridin-2-yl)methyl)-1,4,10,13-tetraoxa-7,16-diazacyclooctadecan-7-yl)methyl)pyridin-4-yl)thioureido)butyl)-33-(4-iodophenyl)-21,24,32-trioxo-3,6,9,12,15,18-hexaoxa-22,25,31-triazatritriacontyl)-1H-1,2,3-triazol-4-yl)phenyl)ureido)pentyl)carbamoyl)-L-glutamic acid]",Retention of 225Ac in vivo,[3],can stably retain ^225Ac in vivo over several days
